In PubChem BioAssay AID504473 (NMMLSC, 2011):
Active and inactive are the calls of the source.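 The calls were made as follows: active = GFP ratio to DMSO above 1.5 or below 0.66; inactive = the rest.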

How the values were obtained:
Assay in all cases: TOR pathway GFP reporter clone modulation in yeast – S. cerevisiae, GFP-tagged clone panel, flow cytometry (AID 504473);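 also: median GFP fluorescence of the cells measured by high-throughput flow cytometry; test concentration not given here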
YGR034W = conditions: S. cerevisiae GFP-tagged strains, 3 h
YGR088W = conditions: S. cerevisiae GFP-tagged strains, 3 h
YPL131W = conditions: S. cerevisiae GFP-tagged strains, 3 h
YDR399W = conditions: S. cerevisiae GFP-tagged strains, 3 h
YHL021C = conditions: S. cerevisiae GFP-tagged strains, 3 h
YER156C = conditions: S. cerevisiae GFP-tagged strains, 3 h
YDR453C = conditions: S. cerevisiae GFP-tagged strains, 3 h
YEL071W = conditions: S. cerevisiae GFP-tagged strains, 3 h
YEL060C = conditions: S. cerevisiae GFP-tagged strains, 3 h
YJR148W = conditions: S. cerevisiae GFP-tagged strains, 3 h
YPL150W = conditions: S. cerevisiae GFP-tagged strains, 3 h
YER117W = conditions: S. cerevisiae GFP-tagged strains, 3 h
YLL039C = conditions: S. cerevisiae GFP-tagged strains, 3 h
YPL220W = conditions: S. cerevisiae GFP-tagged strains, 3 h
YLL026W = conditions: S. cerevisiae GFP-tagged strains, 3 h
YML034W = conditions: S. cerevisiae GFP-tagged strains, 3 h
YLR287C-A = conditions: S. cerevisiae GFP-tagged strains, 3 h
YML128C = conditions: S. cerevisiae GFP-tagged strains, 3 h
YNL142W = conditions: S. cerevisiae GFP-tagged strains, 3 h
YDL204W = conditions: S. cerevisiae GFP-tagged strains, 3 h
YPL111W = conditions: S. cerevisiae GFP-tagged strains, 3 h
YMR307W = conditions: S. cerevisiae GFP-tagged strains, 3 h
YGL135W = conditions: S. cerevisiae GFP-tagged strains, 3 h
YDL205C = conditions: S. cerevisiae GFP-tagged strains, 3 h
YOR182C = conditions: S. cerevisiae GFP-tagged strains, 3 h
YEL007W = conditions: S. cerevisiae GFP-tagged strains, 3 h
YKL103C = conditions: S. cerevisiae GFP-tagged strains, 3 h
YBR072W = conditions: S. cerevisiae GFP-tagged strains, 3 h
YKR039W = conditions: S. cerevisiae GFP-tagged strains, 3 h
YNL112W = conditions: S. cerevisiae GFP-tagged strains, 3 h
YOR038C = conditions: S. cerevisiae GFP-tagged strains, 3 h
YBL087C = conditions: S. cerevisiae GFP-tagged strains, 3 h
YKL119C = conditions: S. cerevisiae GFP-tagged strains, 3 h
YMR105C = conditions: S. cerevisiae GFP-tagged strains, 3 h
YOR063W = conditions: S. cerevisiae GFP-tagged strains, 3 h
[1] = target: General amino acid permease AGP1 (Saccharomyces cerevisiae S288c) (UniProt P25376); conditions: S. cerevisiae GFP-tagged strains, 3 h, YCL025C
Sequence of General amino acid permease AGP1 (Saccharomyces cerevisiae S288c) (P25376 whole entry, looked up): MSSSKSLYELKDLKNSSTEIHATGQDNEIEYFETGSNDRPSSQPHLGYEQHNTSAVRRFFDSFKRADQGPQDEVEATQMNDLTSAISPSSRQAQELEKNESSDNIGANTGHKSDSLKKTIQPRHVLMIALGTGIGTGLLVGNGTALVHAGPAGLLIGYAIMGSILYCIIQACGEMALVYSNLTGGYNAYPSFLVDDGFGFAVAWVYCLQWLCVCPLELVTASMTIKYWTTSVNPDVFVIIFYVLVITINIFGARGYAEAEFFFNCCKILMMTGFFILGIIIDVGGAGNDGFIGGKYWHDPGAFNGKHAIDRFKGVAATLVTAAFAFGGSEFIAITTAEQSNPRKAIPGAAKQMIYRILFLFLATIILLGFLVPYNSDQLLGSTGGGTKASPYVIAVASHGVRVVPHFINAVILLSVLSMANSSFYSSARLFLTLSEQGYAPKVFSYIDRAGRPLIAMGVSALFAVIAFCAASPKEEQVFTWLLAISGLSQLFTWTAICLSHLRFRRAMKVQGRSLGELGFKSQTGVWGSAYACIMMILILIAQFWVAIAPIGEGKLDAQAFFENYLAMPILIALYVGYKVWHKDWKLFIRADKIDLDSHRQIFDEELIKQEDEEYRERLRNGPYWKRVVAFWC

YKL086W = conditions: S. cerevisiae GFP-tagged strains, 3 h
YNR001C = conditions: S. cerevisiae GFP-tagged strains, 3 h
YML004C = conditions: S. cerevisiae GFP-tagged strains, 3 h
YCL064C = conditions: S. cerevisiae GFP-tagged strains, 3 h
YMR251W-A = conditions: S. cerevisiae GFP-tagged strains, 3 h
YGR121C = conditions: S. cerevisiae GFP-tagged strains, 3 h
YBR248C = conditions: S. cerevisiae GFP-tagged strains, 3 h
YOR136W = conditions: S. cerevisiae GFP-tagged strains, 3 h
YKR093W = conditions: S. cerevisiae GFP-tagged strains, 3 h
YLR185W = conditions: S. cerevisiae GFP-tagged strains, 3 h
YHR203C = conditions: S. cerevisiae GFP-tagged strains, 3 h
YOR371C = conditions: S. cerevisiae GFP-tagged strains, 3 h
YHR087W = conditions: S. cerevisiae GFP-tagged strains, 3 h
YGL036W = conditions: S. cerevisiae GFP-tagged strains, 3 h
YIL052C = conditions: S. cerevisiae GFP-tagged strains, 3 h
YPL265W = conditions: S. cerevisiae GFP-tagged strains, 3 h
YBR208C = conditions: S. cerevisiae GFP-tagged strains, 3 h
YML026C = conditions: S. cerevisiae GFP-tagged strains, 3 h
YLR058C = conditions: S. cerevisiae GFP-tagged strains, 3 h
YIL069C = conditions: S. cerevisiae GFP-tagged strains, 3 h
YIL051C = conditions: S. cerevisiae GFP-tagged strains, 3 h
YPR132W = conditions: S. cerevisiae GFP-tagged strains, 3 h
YFR053C = conditions: S. cerevisiae GFP-tagged strains, 3 h
YJL144W = conditions: S. cerevisiae GFP-tagged strains, 3 h
YOL052C-A = conditions: S. cerevisiae GFP-tagged strains, 3 h
YOR173W = conditions: S. cerevisiae GFP-tagged strains, 3 h
YML063W = conditions: S. cerevisiae GFP-tagged strains, 3 h
YER151C = conditions: S. cerevisiae GFP-tagged strains, 3 h
YAL060W = conditions: S. cerevisiae GFP-tagged strains, 3 h
YCR005C = conditions: S. cerevisiae GFP-tagged strains, 3 h
YOR375C = conditions: S. cerevisiae GFP-tagged strains, 3 h
YDR070C = conditions: S. cerevisiae GFP-tagged strains, 3 h
YNL214W = conditions: S. cerevisiae GFP-tagged strains, 3 h
YGL147C = conditions: S. cerevisiae GFP-tagged strains, 3 h
YLR142W = conditions: S. cerevisiae GFP-tagged strains, 3 h
YIL043C = conditions: S. cerevisiae GFP-tagged strains, 3 h
YLR237W = conditions: S. cerevisiae GFP-tagged strains, 3 h
YNL068C = conditions: S. cerevisiae GFP-tagged strains, 3 h
YER081W = conditions: S. cerevisiae GFP-tagged strains, 3 h
YMR120C = conditions: S. cerevisiae GFP-tagged strains, 3 h
YDR382W = conditions: S. cerevisiae GFP-tagged strains, 3 h
YNL015W = conditions: S. cerevisiae GFP-tagged strains, 3 h
YDL130W = conditions: S. cerevisiae GFP-tagged strains, 3 h
YPR184W = conditions: S. cerevisiae GFP-tagged strains, 3 h
YHR141C = conditions: S. cerevisiae GFP-tagged strains, 3 h
YHR144C = conditions: S. cerevisiae GFP-tagged strains, 3 h
YFR031C-A = conditions: S. cerevisiae GFP-tagged strains, 3 h
YPR145W = conditions: S. cerevisiae GFP-tagged strains, 3 h
YBR139W = conditions: S. cerevisiae GFP-tagged strains, 3 h
YJL056C = conditions: S. cerevisiae GFP-tagged strains, 3 h
YEL063C = conditions: S. cerevisiae GFP-tagged strains, 3 h
YGR019W = conditions: S. cerevisiae GFP-tagged strains, 3 h
YAL061W = conditions: S. cerevisiae GFP-tagged strains, 3 h
YIL066C = conditions: S. cerevisiae GFP-tagged strains, 3 h
YGL062W = conditions: S. cerevisiae GFP-tagged strains, 3 h
YLR109W = conditions: S. cerevisiae GFP-tagged strains, 3 h
YLR367W = conditions: S. cerevisiae GFP-tagged strains, 3 h
YHR018C = conditions: S. cerevisiae GFP-tagged strains, 3 h
YKR094C = conditions: S. cerevisiae GFP-tagged strains, 3 h
YCR002C = conditions: S. cerevisiae GFP-tagged strains, 3 h

- GFP ratio to DMSO [1]: 2.27
Structure (SMILES): CO[C@H]1C[C@@H]2CC[C@@H](C)[C@@](O)(O2)C(=O)C(=O)N2CCCC[C@H]2C(=O)O[C@H]([C@H](C)C[C@@H]2CC[C@@H](O)[C@H](OC)C2)CC(=O)[C@H](C)/C=C(\C)[C@@H](O)[C@@H](OC)C(=O)[C@H](C)C[C@H](C)/C=C/C=C/C=C/1C
- GFP ratio to DMSO (YGR034W): 0.689 (inactive)
- GFP ratio to DMSO (YGR088W): 2.06
- GFP ratio to DMSO (YPL131W): 0.781 (inactive)
- GFP ratio to DMSO (YDR399W): 0.946 (inactive)
- GFP ratio to DMSO (YHL021C): 2.52
- GFP ratio to DMSO (YER156C): 1.05 (inactive)
- GFP ratio to DMSO (YDR453C): 2.58
- GFP ratio to DMSO (YEL071W): 2.11
- GFP ratio to DMSO (YEL060C): 2.55
- GFP ratio to DMSO (YJR148W): 3.38
- GFP ratio to DMSO (YPL150W): 1.04 (inactive)
- GFP ratio to DMSO (YER117W): 0.304
- GFP ratio to DMSO (YLL039C): 1.77
- GFP ratio to DMSO (YPL220W): 0.887 (inactive)
- GFP ratio to DMSO (YLL026W): 2.05
- GFP ratio to DMSO (YML034W): 1.04 (inactive)
- GFP ratio to DMSO (YLR287C-A): 0.625
- GFP ratio to DMSO (YML128C): 2.56
- GFP ratio to DMSO (YNL142W): 15.6
- GFP ratio to DMSO (YDL204W): 1.4 (inactive)
- GFP ratio to DMSO (YPL111W): 2.16
- GFP ratio to DMSO (YMR307W): 0.685 (inactive)
- GFP ratio to DMSO (YGL135W): 0.682 (inactive)
- GFP ratio to DMSO (YDL205C): 0.898 (inactive)
- GFP ratio to DMSO (YOR182C): 0.576
- GFP ratio to DMSO (YEL007W): 1.05 (inactive)
- GFP ratio to DMSO (YKL103C): 2.8
- GFP ratio to DMSO (YBR072W): 4.94
- GFP ratio to DMSO (YKR039W): 12.7
- GFP ratio to DMSO (YNL112W): 0.73 (inactive)
- GFP ratio to DMSO (YOR038C): 1.21 (inactive)
- GFP ratio to DMSO (YBL087C): 0.33
- GFP ratio to DMSO (YKL119C): 1.03 (inactive)
- GFP ratio to DMSO (YMR105C): 2.65
- GFP ratio to DMSO (YOR063W): 0.703 (inactive)
- GFP ratio to DMSO (YKL086W): 1.49 (inactive)
- GFP ratio to DMSO (YNR001C): 1.7
- GFP ratio to DMSO (YML004C): 1.5 (inactive)
- GFP ratio to DMSO (YCL064C): 1.28 (inactive)
- GFP ratio to DMSO (YMR251W-A): 1.96
- GFP ratio to DMSO (YGR121C): 1.72
- GFP ratio to DMSO (YBR248C): 1.11 (inactive)
- GFP ratio to DMSO (YOR136W): 1.51
- GFP ratio to DMSO (YKR093W): 3.56
- GFP ratio to DMSO (YLR185W): 0.705 (inactive)
- GFP ratio to DMSO (YHR203C): 0.685 (inactive)
- GFP ratio to DMSO (YOR371C): 1.06 (inactive)
- GFP ratio to DMSO (YHR087W): 2.24
- GFP ratio to DMSO (YGL036W): 0.919 (inactive)
- GFP ratio to DMSO (YIL052C): 0.619
- GFP ratio to DMSO (YPL265W): 3.22
- GFP ratio to DMSO (YBR208C): 3.04
- GFP ratio to DMSO (YML026C): 0.289
- GFP ratio to DMSO (YLR058C): 1.04 (inactive)
- GFP ratio to DMSO (YIL069C): 0.171
- GFP ratio to DMSO (YIL051C): 1.4 (inactive)
- GFP ratio to DMSO (YPR132W): 0.366
- GFP ratio to DMSO (YFR053C): 1.66
- GFP ratio to DMSO (YJL144W): 2.03
- GFP ratio to DMSO (YOL052C-A): 2.68
- GFP ratio to DMSO (YOR173W): 1.86
- GFP ratio to DMSO (YML063W): 0.714 (inactive)
- GFP ratio to DMSO (YER151C): 1.03 (inactive)
- GFP ratio to DMSO (YAL060W): 3.23
- GFP ratio to DMSO (YCR005C): 4.59
- GFP ratio to DMSO (YOR375C): 1.78
- GFP ratio to DMSO (YDR070C): 4.12
- GFP ratio to DMSO (YNL214W): 1.06 (inactive)
- GFP ratio to DMSO (YGL147C): 0.682 (inactive)
- GFP ratio to DMSO (YLR142W): 1.41 (inactive)
- GFP ratio to DMSO (YIL043C): 0.996 (inactive)
- GFP ratio to DMSO (YLR237W): 0.864 (inactive)
- GFP ratio to DMSO (YNL068C): 1.06 (inactive)
- GFP ratio to DMSO (YER081W): 1.08 (inactive)
- GFP ratio to DMSO (YMR120C): 0.612
- GFP ratio to DMSO (YDR382W): 0.783 (inactive)
- GFP ratio to DMSO (YNL015W): 1.88
- GFP ratio to DMSO (YDL130W): 0.717 (inactive)
- GFP ratio to DMSO (YPR184W): 2.01
- GFP ratio to DMSO (YHR141C): 0.777 (inactive)
- GFP ratio to DMSO (YHR144C): 0.869 (inactive)
- GFP ratio to DMSO (YFR031C-A): 0.481
- GFP ratio to DMSO (YPR145W): 2.19
- GFP ratio to DMSO (YBR139W): 1.61
- GFP ratio to DMSO (YJL056C): 0.954 (inactive)
- GFP ratio to DMSO (YEL063C): 1.7
- GFP ratio to DMSO (YGR019W): 1.93
- GFP ratio to DMSO (YAL061W): 2.14
- GFP ratio to DMSO (YIL066C): 1.17 (inactive)
- GFP ratio to DMSO (YGL062W): 2.27
- GFP ratio to DMSO (YLR109W): 1.43 (inactive)
- GFP ratio to DMSO (YLR367W): 0.635
- GFP ratio to DMSO (YHR018C): 1.54
- GFP ratio to DMSO (YKR094C): 0.484
- GFP ratio to DMSO (YCR002C): 0.98 (inactive)
